Measured values reported in DBAASP.
≈ marks a conversion by molar mass, not a printed value. Blank lines part the entries; values can stand above or below the molecule they belong to.

Columns and labels:
Test in all cases: ≥ marks a high value that may be exact or a test limit, other limits are often not marked, values filed in µg/mL are converted to µM
[1] = test system: Aspergillus awamori KCTC 6915
[2] = test system: Aspergillus flavus KCTC 6905
[3] = test system: Aspergillus fumigatus KCTC 6145
[4] = test system: Aspergillus parasiticus KCTC 6598
[5] = test system: Bacillus subtilis KCTC 1998
[6] = test system: Candida albicans KCTC 7270
[7] = test system: Escherichia coli ATCC 25922
[8] = test system: Listeria monocytogenes KCTC 3710
[9] = test system: Proteus vulgaris KCTC 2433
[10] = test system: Pseudomonas aeruginosa ATCC 15692
[11] = test system: Salmonella typhimurium KCTC 1926
[12] = test system: Staphylococcus aureus ATCC 25923
[13] = test system: Staphylococcus epidermidis ATCC 12228
[14] = test system: Trichosporon beigelii KCTC 7707
[15] = test system: Escherichia coli DH5alpha
Staphylococcus xylosus = test system: Staphylococcus xylosus
[16] = test system: Batrachochytrium dendrobatidis JEL-197
[17] = test system: Candida albicans ATCC 2002
[18] = test system: Pseudomonas aeruginosa CMCCB 10104
[19] = test system: Staphylococcus aureus ATCC 2592
[20] = test system: Acinetobacter baumannii ATCC BAA-1794
[21] = test system: Escherichia coli ATCC 51659
[22] = test system: Pseudomonas aeruginosa PAO1
[23] = test system: Staphylococcus aureus ATCC 33592
[24] = test system: Actinomyces naeslundii ATCC 12104
[25] = test system: Actinomyces viscosus ATCC 15987
[26] = test system: Lacticaseibacillus casei ATCC 393
[27] = test system: Lactobacillus acidophilus ATCC 14931
[28] = test system: Limosilactobacillus fermentum ATCC 9338
[29] = test system: Streptococcus gordonii DL1
[30] = test system: Streptococcus mutans UA159
[31] = test system: Streptococcus sanguinis ATCC 10556
[32] = test system: Escherichia coli ATCC 2592
[33] = test system: Micrococcus luteus ATCC 9341
[34] = test system: Pseudomonas aeruginosa ATCC 9027
[35] = test system: Staphylococcus aureus 1550
[36] = test system: Staphylococcus aureus ATCC 6538
[37] = test system: Micrococcus luteus MTCC 106
[38] = test system: Vibrio cholerae MTCC 3904

- MIC [1]: 16 µM (≈ 31.8 µg/mL)
- MIC [2]: 16 µM (≈ 31.8 µg/mL)
- MIC [3]: 8 µM (≈ 15.9 µg/mL)
- MIC [4]: 8 µM (≈ 15.9 µg/mL)
- MIC [5]: 2 µM (≈ 3.97 µg/mL)
- MIC [6]: 8 µM (≈ 15.9 µg/mL)
- MIC [7]: 4 µM (≈ 7.95 µg/mL)
- MIC [8]: 2 µM (≈ 3.97 µg/mL)
- MIC [9]: 4 µM (≈ 7.95 µg/mL)
- MIC [10]: 1 µM (≈ 1.99 µg/mL)
- MIC [11]: 1 µM (≈ 1.99 µg/mL)
- MIC [12]: 2 µM (≈ 3.97 µg/mL)
- MIC [13]: 2.83 µM (≈ 5.62 µg/mL)
- MIC [14]: 16 µM (≈ 31.8 µg/mL)
SMILES: CC[C@H](C)[C@H](NC(=O)[C@H](CCCCN)NC(=O)[C@H](CCCCN)NC(=O)[C@H](Cc1ccccc1)NC(=O)[C@H](CC(C)C)NC(=O)[C@H](CCCCN)NC(=O)[C@H](CCCCN)NC(=O)[C@H](CC(C)C)NC(=O)[C@H](CCCN=C(N)N)NC(=O)[C@H](CCCCN)NC(=O)[C@H](C)N)C(=O)N[C@@H](Cc1c[nH]c2ccccc12)C(=O)N[C@@H](CC(N)=O)C(=O)N[C@@H](Cc1c[nH]c2ccccc12)C(=O)N[C@@H](CCCCN)C(N)=O [AKRLKKLFKKIWNWK]

- MIC [15]: 8 µM (≈ 11.7 µg/mL)
- MIC (Staphylococcus xylosus): 0.5 µM (≈ 0.733 µg/mL)
SMILES: CC[C@H](C)[C@H](NC(=O)[C@H](CCCCN)NC(=O)[C@H](CCCCN)NC(=O)[C@@H](N)CCCCN)C(=O)N[C@H](C(=O)N[C@H](C(=O)N[C@H](C(=O)N[C@H](C(=O)N[C@H](C(=O)N[C@@H](CCCCN)C(=O)N[C@@H](CCCCN)C(=O)N[C@@H](CCCCN)C(=O)O)[C@@H](C)CC)[C@@H](C)CC)[C@@H](C)CC)[C@@H](C)CC)[C@@H](C)CC [KKKIIIIIIKKK]

- MIC [16]: 20 µM (≈ 52.2 µg/mL)
- MIC [7]: 14 µM (≈ 36.6 µg/mL)
SMILES: CC[C@H](C)[C@H](NC(=O)[C@H](CCCCN)NC(=O)[C@H](CCCCN)NC(=O)[C@H](CC(C)C)NC(=O)[C@@H](NC(=O)[C@H](CCC(N)=O)NC(=O)CNC(=O)[C@H](C)NC(=O)[C@@H](NC(=O)CNC(=O)[C@H](C)NC(=O)[C@@H](NC(=O)[C@@H](NC(=O)[C@@H]1CCCN1C(=O)[C@H](Cc1ccccc1)NC(=O)[C@@H](N)Cc1ccccc1)[C@@H](C)CC)C(C)C)C(C)C)C(C)C)C(=O)N[C@@H](Cc1ccc(O)cc1)C(=O)N[C@H]1CSSC[C@@H](C(=O)O)NC(=O)[C@H](CCCCN)NC(=O)[C@H](CCCCN)NC(=O)[C@H](CO)NC(=O)[C@H]([C@@H](C)CC)NC(=O)[C@H]([C@@H](C)O)NC1=O [FFPIVAGVAGQVLKKIYCTISKKC]

- MIC [17]: 2.57 µM (≈ 5 µg/mL)
- MIC [7]: 10.3 µM (≈ 20 µg/mL)
- MIC [18]: 10.3 µM (≈ 20 µg/mL)
- MIC [19]: 5.14 µM (≈ 10 µg/mL)
SMILES: CC[C@H](C)[C@H](N)C(=O)N[C@@H](CC(C)C)C(=O)NCC(=O)N1CCC[C@H]1C(=O)N[C@H](C(=O)N[C@@H](CC(C)C)C(=O)NCC(=O)N[C@@H](CC(C)C)C(=O)N[C@H](C(=O)NCC(=O)N[C@@H](CC(N)=O)C(=O)N[C@@H](C)C(=O)N[C@@H](CC(C)C)C(=O)NCC(=O)NCC(=O)N[C@@H](CC(C)C)C(=O)N[C@H](C(=O)N[C@@H](CCCCN)C(=O)N[C@@H](CCCCN)C(=O)N[C@H](C(N)=O)[C@@H](C)CC)[C@@H](C)CC)C(C)C)C(C)C [ILGPVLGLVGNALGGLIKKI]

- MIC [20]: ≥ 90.3 µM
- MIC [21]: ≥ 90.3 µM
- MIC [22]: > 90.3 µM
- MIC [23]: ≥ 90.3 µM
SMILES: CC(C)C[C@H](NC(=O)[C@H](CCCCN)NC(=O)[C@H](CCC(=O)O)NC(=O)[C@H](CCCCN)NC(=O)[C@@H](NC(=O)[C@H](CCCCN)NC(=O)[C@H](CCCCN)NC(=O)[C@H](Cc1ccccc1)NC(=O)[C@H](Cc1cnc[nH]1)NC(=O)[C@H](CCC(=O)O)NC(=O)[C@H](CO)NC(=O)[C@H](Cc1ccccc1)NC(=O)[C@H](Cc1c[nH]c2ccccc12)NC(=O)[C@H](CC(N)=O)NC(=O)[C@H](CCCN=C(N)N)NC(=O)[C@@H](NC(=O)[C@@H](N)CCCCN)[C@@H](C)O)C(C)C)C(=O)N[C@@H](CCCCN)C(=O)N[C@@H](CC(=O)O)C(=O)N[C@H](C(=O)N[C@@H](Cc1ccccc1)C(=O)N[C@@H](C)C(=O)O)[C@@H](C)O [KTRNWFSEHFKKVKEKLKDTFA]

- MIC [24]: ≥ 257 µM
- MIC [25]: ≥ 257 µM
- MIC [26]: 4.02 µM (≈ 8 µg/mL)
- MIC [27]: 4.02 µM (≈ 8 µg/mL)
- MIC [28]: 16.1 µM (≈ 32 µg/mL)
- MIC [29]: ≥ 64.3 µM
- MIC [30]: ≥ 257 µM
- MIC [31]: ≥ 64.3 µM
SMILES: CC(C)C[C@H](NC(=O)CN)C(=O)N[C@@H](CC(C)C)C(=O)N[C@@H](Cc1c[nH]c2ccccc12)C(=O)N[C@@H](Cc1cnc[nH]1)C(=O)N[C@@H](CC(C)C)C(=O)N[C@@H](CC(C)C)C(=O)N[C@@H](Cc1cnc[nH]1)C(=O)N[C@@H](Cc1cnc[nH]1)C(=O)N[C@@H](CC(C)C)C(=O)N[C@@H](CC(C)C)C(=O)N[C@@H](Cc1cnc[nH]1)C(=O)N[C@@H](CC(C)C)C(=O)N[C@@H](CC(C)C)C(=O)N[C@@H](Cc1cnc[nH]1)C(=O)N[C@@H](Cc1cnc[nH]1)C(N)=O [GLLWHLLHHLLHLLHH]

- MIC [32]: 18 µM (≈ 22 µg/mL)
- MIC [33]: 9.01 µM (≈ 11 µg/mL)
- MIC [34]: 13.1 µM (≈ 16 µg/mL)
- MIC [35]: 13.1 µM (≈ 16 µg/mL)
- MIC [36]: 10.2 µM (≈ 12.5 µg/mL)
SMILES: CC(C)C[C@H](NC(=O)[C@@H](NC(=O)[C@H](CCCCN)NC(=O)[C@H](Cc1ccccc1)NC(=O)[C@@H](NC(=O)[C@@H](NC(=O)[C@H](CCCCN)NC(=O)[C@@H](N)CC(C)C)C(C)C)C(C)C)C(C)C)C(=O)N[C@@H](Cc1ccccc1)C(=O)N[C@@H](CCCCN)C(=O)O [LKVVFKVLFK]

- MIC [37]: 6.3 µM (≈ 10.7 µg/mL)
SMILES: CC(C)C[C@H](NC(=O)[C@H](Cc1cnc[nH]1)NC(=O)[C@@H](NC(=O)[C@H](CC(C)C)NC(=O)[C@@H]1CSSC[C@H](NC(=O)[C@H](CO)NC(=O)[C@H](Cc2ccccc2)NC(=O)[C@@H]2CCCN2C(=O)[C@@H](NC(=O)[C@@H]2CCCN2C(=O)[C@H](C)N)C(C)C)C(=O)N[C@@H]([C@@H](C)O)C(=O)N[C@@H](CCCN=C(N)N)C(=O)NCC(=O)N1)[C@@H](C)O)C(=O)N[C@H](C(=O)O)C(C)C [APVPFSCTRGCLTHLV]
- MIC [38]: 25.4 µM (≈ 43.2 µg/mL)
